# From patent US20060046972A1, “Cytotoxic nucleoside analog compound 003 for treating cancer” (Parker Hughes Institute, priority 2004, published 2006)
# Tests used:
# Stability in plasma = type: in vitro ADME
# Description: Plasma samples, simulated gastric fluid and intestinal fluids (United State Pharmacopeia XXII methods) were separately spiked with COMPOUND 003 to yield final concentrations of 500 μM. Spiked samples were incubated at 37° C. At a predetermined time (5, 10, 15, 30 60 and 120 minutes), an aliquot (200 μl) of the spiked plasma sample was extracted as described above.
# MOLT-3 T-lymphoma cells = assay: Confocal laser scanning microscopy of mitotic spindle, MOLT-3; type: cell-based, human; conditions: 100 μM
# Description: (§1) Immunofluorenscence was used to examine the spindle features of human cancer cell lines treated with Compound 003 or 0.5% DMSO. Initially, cells at log phase were seeded onto sterile 22 mm coverslips in six -well culture plates. 24 hours later, the cells were treated with compound 003 for 2 hours at 37° C., 5% C02, fixed in methanol (−20° C. 15 min) followed by a 15 minute incubation with PBS +0.1.% Tx-100. The coverslips were incubated with antibodies raised against α-tubulin, γ-tubulin (Sigma Chemical Co., St Louis, Mo.) (40 min 37° C.), washed in PBS-Tx-100, and incubated with an appropriate secondary antibody conjugated to FITC (Jackson ImmunoResearch, Westgrove, Pa.). Cellular DNA was labeled with 5 μM TOTO3 (Molecular Probes, Eugene, Oreg.) for 20 minutes. Coverslips were immediately inverted onto slides in Vectashield (Vector Labs, Burlingame, Calif.) to prevent photobleaching, sealed with nail varnish and stored at −20° C. The slides were examined using a Bio-Rad MRC-1024 Laser Scanning Confocal Microscope equipped with a Kr/Ar laser (BioRad, Hercules, Calif.) mounted on a Nikon Eclipse E800 upright microscope with high numerical aperture objectives (Nikon, Melville, N.Y.). Digital data were processed using Lasersharp (BioRad) and Adobe Photoshop software (Adobe Systems, Mountain View, Calif.). […]
# [1] = test system: human infant leukemia (RS4; 11); assay: DNA flow cytometry of cell cycle arrest, RS4;11; type: cell-based; conditions: 100 μM, 48 hour
# Description: Exponentially growing tumor cells were cultured at 1×10^6 cells/ml in clonogenic medium (RPMI 1640 medium +1% penicillin/streptomycin +10% heat-inactivated fetal bovine serum, 2 mML-glutamine, and 10 mM Hepes buffer) in the presence or absence of 100 μM compound 003 for 48 hour at 37° C., 5% CO2. At 48 h, cells were washed two times in fresh clonogenic medium, trypsinized, fixed in ice cold ethanol and labeled with propidium iodide to quantify their DNA content, as described previously (See, for example, Navara, et al., 2001, Anticancer Drugs. 12:369). Quantitative DNA analysis was performed on a Becton Dickenson Calibur flow cytometer equipped with a Consort 40 computer using the COTFIT program, which includes CELLCY, a cell cycle distribution function that fits DNA content histograms and calculates-the percentages of cells in G, S, and GM phases of the cell cycle, as described, for example, in Uckun et al., 1996, J Biol Chem. 271, 6389.
# [2] = test system: DU145 prostate cancer cells; assay: Confocal laser scanning microscopy of mitotic spindle, DU145; type: cell-based, human; conditions: 100 μM
# Description: as §1
# [3] = test system: Microsomal or cytosolic fractions of Nalm6 cells; assay: Enzyme kinetics of Compound 003 metabolism in subcellular fractions, Nalm6; type: in vitro ADME, human
# Description: (§2) 1−3×10^8 Nalm6 and BT20 cells were washed with PBS, resuspended in homogenizing buffer containing 10 mM Tris-HCl (pH 7.4) and 250 mM sucrose. Cells were sonicated and spun at 10,000×g, and the resulting supernatant was centrifuged again at 100,000×g to isolate microsomal and cytosolic fractions. The microsomal pellet was resuspended in a buffer containing 10 mM Tris-HCl (pH 7.4), 250 mM sucrose, 1 mM EDTA, and 20% glycerol. Microsomes or cytosols of Nalm6 (80 μg. and 86 μg, respectively) and BT20 cells (59 μg and 160 μg, respectively) were preincubated with or without 1 mM paraoxon in Tris-HCl buffer (pH 7.4) in a total volume of 250 μl for 10 minutes; 1. mM COMPOUND 003 was then added to the incubation mixture, and the reactions were allowed to proceed for another 30 minutes and terminated by addition of 125 μl of acetone. Protein precipitation was then removed by centrifugation; 100 μl of the supernatant was injected directly into the HPLC.
# (§3) 2.2.9 Enzyme Kinetics of Compound 003 Metabolism Microsomal or cytosolic fractions of Nalm6 and BT20 cells were incubated with COMPOUND 003 at various concentrations from 10 μM to 1.2 mM in similar reaction conditions as described above, except without the inhibitor. The reactions were allowed to proceed for 40 minutes. Km and Vmax in the Michaelis-Menten model were estimated by WinNonlin program (Scientific Consulting, Inc.)
# [4] = test system: Microsomal or cytosolic fractions of BT20 cells; assay: Enzyme kinetics of Compound 003 metabolism in subcellular fractions, BT20; type: in vitro ADME, human
# Description: as §2, §3
smiles,measurement,setting,value
"COC(=O)C(C)NP(=O)(OCC1OC(n2cc(C)c(=O)[nH]c2=O)CC1N=[N+]=[N-])Oc1ccc(OC)cc1 (centres unmarked) [Compound 003, 3′-azidothymidine 5′-[p-methoxyphenylmethoxyalaninyl phosphate]]",decomposition product,Stability in plasma,decomposed to mainly form ala-AZT-MP
same,stability,"Stability in plasma; 500 μM, 37° C.",unstable in plasma
same,share of Compound 003 decomposed,"Stability in plasma; 500 μM, 37° C., within 5 minutes",> 99%
same,mitotic spindle formation,MOLT-3 T-lymphoma cells,induced aberrant multipolar spindle formation
same,cell cycle arrest,[1],G2M cell cycle arrest
same,mitotic spindle formation,[2],induced aberrant multipolar spindle formation
same,Km,[3]; cytosolic fraction,765 µM
same,Vmax,[3]; cytosolic fraction,541 pmol/mg/min
same,Km,[3]; microsomal fraction,163 µM
same,Vmax,[3]; microsomal fraction,82.3 pmol/mg/min
same,Km,[4]; cytosolic fraction,1750 µM
same,Vmax,[4]; cytosolic fraction,5.9 nmol/mg/min
same,Km,[4]; microsomal fraction,460 µM
same,Vmax,[4]; microsomal fraction,0.7 nmol/mg/min
